Values of other authors as cited in patent US12582584B2, “Oxidizer and acid based system and regimen for enhancing skin appearance” (L'OREAL, priority 2021, dated 2026).

Conditions: acute oral toxicity, mutagenicity, skin irritation, skin sensitization, phototoxicity

Which “Adverse effects in basic toxicological tests” value does the source give for CC(c1ccccc1)c1ccc(O)cc1O (stereo not shown) [Phenylethyl resorcinol] here?
Its value is “has not shown adverse effects”.
